The values that follow come from patent publication US9113629B2, “4-amino-6-(4-substituted-phenyl)-picolinates and 6-amino-2-(4-substituted-phenyl)-pyrimidine-4-carboxylates and their use as herbicides” (DOW AGROSCIENCES LLC, priority 2013, dated 2015).

The subject of assay [1] is ALOMY: black-grass (Alopecurus myosuroides). The assay can be described thus: Post-emergent Test III, herbicidal activity in wheat and barley. It counts as in vivo. To be noted: for pest or weed control at 35 g/ha / pest or weed control at 70 g/ha / pest or weed control at 140 g/ha: Alopecurus myosuroides, post-emergence, 504 h, read-out: Visual Growth Reduction (%) 21 Days After Application ALOMY; for pest or weed control at 35 g/ha: 35 g ai/ha; for pest or weed control at 70 g/ha: 70 g ai/ha; for pest or weed control at 140 g/ha: 140 g ai/ha; for GR50 ALOMY / GR80 ALOMY: probit analysis, 21 days after application; for GR50 ALOMY: dose for growth reduction of 50 percent; for GR80 ALOMY: dose for growth reduction of 80 percent. The essentials: (§1)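 Plants at the second to third true-leaf stage, grown in a greenhouse at about 18/17 °C with a 14 h photoperiod, were sprayed post-emergence at 187 L/ha with the high rate and ½× to 1/16× serial dilutions in an acetone/DMSO/crop-oil/surfactant carrier. Injury was rated visually at 21 d on a 0–100% scale, and GR20–GR90 were derived by probit analysis.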

For assay [2], the system named is PAPRH: common poppy (Papaver rhoeas). The assay is described as above. It counts as in vivo. To be noted: for pest or weed control at 35 g/ha / pest or weed control at 70 g/ha / pest or weed control at 140 g/ha: Papaver rhoeas, post-emergence, 504 h, read-out: Visual Growth Reduction (%) 21 Days After Application PAPRH; for pest or weed control at 35 g/ha: 35 g ai/ha; for pest or weed control at 70 g/ha: 70 g ai/ha; for pest or weed control at 140 g/ha: 140 g ai/ha; for GR50 PAPRH / GR80 PAPRH: probit analysis, 21 days after application; for GR50 PAPRH: dose for growth reduction of 50 percent; for GR80 PAPRH: dose for growth reduction of 80 percent. The method in brief: as §1

With `COC(=O)c1nc(-c2ccc(Br)cc2)c(F)c(N)c1Cl` [Compound 138, Methyl 4-amino-6-(4-bromophenyl)-3-chloro-5-fluoropicolinate], in assay [1], the pest or weed control at 35 g/ha lay within 75 to 84%, the pest or weed control at 70 g/ha lay within 85 to 94%, the pest or weed control at 140 g/ha fell in the range of 95 to 100% and the “GR50 ALOMY” value amounted to 11 g ai/ha. Besides, the “GR80 ALOMY” value in assay [1] turned out to be 30 g ai/ha. In addition, in assay [2], the pest or weed control at 35 g/ha was 95 to 100%, the pest or weed control at 70 g/ha fell in the range of 95 to 100%, the pest or weed control at 140 g/ha is 95 to 100% and the “GR50 PAPRH” value turned out to be 1 g ai/ha. In addition, the “GR80 PAPRH” value in assay [2] is 1 g ai/ha.

For `COC(=O)c1nc(-c2ccc(C#N)cc2)c(F)c(N)c1Cl` [Compound 142], in assay [1], the pest or weed control at 35 g/ha was 0 to 29%, the pest or weed control at 70 g/ha was in the range of 0 to 29%, the pest or weed control at 140 g/ha lay in the range of 0 to 29% and the “GR50 ALOMY” value is on record as above 140 g ai/ha. For the same molecule, the “GR80 ALOMY” value in assay [1] is listed as above 140 g ai/ha. In assay [2], the pest or weed control at 35 g/ha was 85 to 94%, the pest or weed control at 70 g/ha was 95 to 100%, the pest or weed control at 140 g/ha lay within 95 to 100% and the “GR50 PAPRH” value came out at 1 g ai/ha. Also, in assay [2], the “GR80 PAPRH” value is listed as 4 g ai/ha.

In the case of `Nc1c(F)c(-c2ccc(OC(F)F)cc2)nc(C(=O)O)c1Cl` [Compound 143], in assay [1], the pest or weed control at 35 g/ha lay within 0 to 29%, the pest or weed control at 70 g/ha was 60 to 74%, the pest or weed control at 140 g/ha lay within 60 to 74% and the “GR50 ALOMY” value is 71 g ai/ha. The “GR80 ALOMY” value in assay [1] is listed as above 140 g ai/ha. In addition, in assay [2], the pest or weed control at 35 g/ha fell in the range of 85 to 94%, the pest or weed control at 70 g/ha is 85 to 94%, the pest or weed control at 140 g/ha is 85 to 94% and the “GR50 PAPRH” value was determined as 1 g ai/ha. In addition, the “GR80 PAPRH” value in assay [2] is reported as 8 g ai/ha.
